Measured values from US10221179B2, “Substituted pyrazoloquinazolinones and pyrroloquinazolinones as allosteric modulators of group II metabotropic glutamate receptors” (DOMAIN THERAPEUTICS, priority 2014, dated 2019).
Structures can show the parent of a compound that is named as a salt.

Cl.Cn1c(=O)c2cc(OCCN3CCOCC3)ccc2n2nc(-c3ccnc(C(F)(F)F)c3)cc12
melting point: > 250 °C

CN1CCN(c2ccc3c(=O)n(C)c4cc(-c5ccnc(C(F)(F)F)c5)nn4c3c2)CC1.Cl
melting point: > 250 °C

Cl.Cn1c(=O)c2ccc(N3CCNCC3)cc2n2nc(-c3ccnc(C(F)(F)F)c3)cc12
melting point: > 250 °C

Cl.Cn1c(=O)c2ccccc2n2nc(-c3ccnc(C4CCCC4)c3)cc12
melting point: > 250 °C

Cl.Cn1c(=O)c2ccccc2n2nc(-c3ccnc(C4CCCCC4)c3)cc12
melting point: > 250 °C

COc1ccc2c(c1)c(=O)n(C)c1cc(-c3ccnc(C4CC4)c3)nn21 (as salt: HCl) [Example 100, 2-(2-Cyclopropyl-pyridin-4-yl)-7-methoxy-4-methyl-4H-pyrazolo[1,5-a]quinazolin-5-one]
melting point: 230 to 240 °C

Cn1c(=O)c2ccccc2n2nc(-c3ccncc3)cc12 (as salt: HCl) [Example 104, 4-Methyl-2-pyridin-4-yl-4H-pyrazolo[1,5-a]quinazolin-5-one]
melting point: > 250 °C

Cc1cc(-c2cc3n(C)c(=O)c4ccccc4n3n2)cc(C2CC2)n1 (as salt: HCl) [Example 106, 2-(2-Cyclopropyl-6-methyl-pyridin-4-yl)-4-methyl-4H-pyrazolo[1,5-a]quinazolin-5-one]
melting point: > 250 °C

Cn1c(=O)c2ccccc2n2nc(-c3ccnc(OC4COC4)c3)cc12 [Example 18, 4-Methyl-2-[2-(oxetan-3-yloxy)-pyridin-4-yl]-4H-pyrazolo[1,5-a]quinazolin-5-one]
melting point: 219 to 223 °C

COCCOc1cc(-c2cc3n(C)c(=O)c4ccccc4n3n2)ccn1 [Example 20, 2-[2-(2-Methoxy-ethoxy)-pyridin-4-yl]-4-methyl-4H-pyrazolo[1,5-a]quinazolin-5-one]
melting point: 169 to 173 °C

O=c1c2ccccc2n2nc(-c3ccnc(C(F)(F)F)c3)cc2n1CC(F)F [Example 29, 4-(2,2-Difluoro-ethyl)-2-(2-trifluoromethyl-pyridin-4-yl)-4H-pyrazolo[1,5-a]quinazolin-5-one]
melting point: 223 to 230 °C

COCCn1c(=O)c2ccccc2n2nc(-c3ccnc(C(F)(F)F)c3)cc12 [Example 30, 4-(2-Methoxy-ethyl)-2-(2-trifluoromethyl-pyridin-4-yl)-4H-pyrazolo[1,5-a]quinazolin-5-one]
melting point: 165 to 174 °C

Cn1c(=O)c2cc(C(F)(F)F)ccc2n2nc(-c3ccnc(C(F)(F)F)c3)cc12 [Example 37]
melting point: 205 to 210 °C

CC(=O)Nc1ccc2c(c1)c(=O)n(C)c1cc(-c3ccnc(C(F)(F)F)c3)nn21 [Example 42, N-[4-Methyl-5-oxo-2-(2-trifluoromethyl-pyridin-4-yl)-4,5-dihydro-pyrazolo[1,5-a]quinazolin-7-yl]-acetamide]
melting point: > 250 °C

Cn1c(=O)c2cc(N)ccc2n2nc(-c3ccnc(C(F)(F)F)c3)cc12 [Example 43, 7-Amino-4-methyl-2-(2-trifluoromethyl-pyridin-4-yl)-4H-pyrazolo[1,5-a]quinazolin-5-one]
melting point: 245 to 250 °C

Cn1c(=O)c2cc(NC3CCC3)ccc2n2nc(-c3ccnc(C(F)(F)F)c3)cc12 [Example 46, 7-Cyclobutylamino-4-methyl-2-(2-trifluoromethyl-pyridin-4-yl)-4H-pyrazolo[1,5-a]quinazolin-5-one]
melting point: 220 to 225 °C

Cn1c(=O)c2cc(N3CCOCC3)ccc2n2nc(-c3ccnc(C(F)(F)F)c3)cc12 [Example 47, 4-Methyl-7-morpholin-4-yl-2-(2-trifluoromethyl-pyridin-4-yl)-4H-pyrazolo[1,5-a]quinazolin-5-one]
melting point: 149 to 163 °C

COCCOc1ccc2c(c1)c(=O)n(C)c1cc(-c3ccnc(C(F)(F)F)c3)nn21 [Example 50, 7-(2-Methoxy-ethoxy)-4-methyl-2-(2-trifluoromethyl-pyridin-4-yl)-4H-pyrazolo[1,5-a]quinazolin-5-one]
melting point: 182 to 189 °C

Cn1c(=O)c2cc(OC(F)(F)F)ccc2n2nc(-c3ccnc(C(F)(F)F)c3)cc12 [Example 52, 4-Methyl-7-trifluoromethoxy-2-(2-trifluoromethyl-pyridin-4-yl)-4H-pyrazolo[1,5-a]quinazolin-5-one]
melting point: 240 to 245 °C

Cn1c(=O)c2cc(S(C)(=O)=O)ccc2n2nc(-c3ccnc(C(F)(F)F)c3)cc12 [Example 53, 7-Methanesulfonyl-4-methyl-2-(2-trifluoromethyl-pyridin-4-yl)-4H-pyrazolo[1,5-a]quinazolin-5-one]
melting point: > 250 °C

COc1ccc2c(=O)n(C)c3cc(-c4ccnc(C(F)(F)F)c4)nn3c2c1 [Example 54, 8-Methoxy-4-methyl-2-(2-trifluoromethyl-pyridin-4-yl)-4H-pyrazolo[1,5-a]quinazolin-5-one]
melting point: > 250 °C

Cn1c(=O)c2ccc(N3CCOCC3)cc2n2nc(-c3ccnc(C(F)(F)F)c3)cc12 [Example 59, 4-Methyl-8-morpholin-4-yl-2-(2-trifluoromethyl-pyridin-4-yl)-4H-pyrazolo[1,5-a]quinazolin-5-one]
melting point: > 250 °C

Cn1c(=O)c2ccc(N3CCCC3)cc2n2nc(-c3ccnc(C(F)(F)F)c3)cc12 [Example 60, 4-Methyl-8-pyrrolidin-1-yl-2-(2-trifluoromethyl-pyridin-4-yl)-4H-pyrazolo[1,5-a]quinazolin-5-one]
melting point: > 250 °C

COC1CCN(c2ccc3c(=O)n(C)c4cc(-c5ccnc(C(F)(F)F)c5)nn4c3c2)CC1 [Example 62, 8-(4-Methoxy-piperidin-1-yl)-4-methyl-2-(2-trifluoromethyl-pyridin-4-yl)-4H-pyrazolo[1,5-a]quinazolin-5-one]
melting point: > 250 °C

Cn1c(=O)c2ccc(N3CCC(CO)CC3)cc2n2nc(-c3ccnc(C(F)(F)F)c3)cc12 [Example 67, 8-(4-Hydroxymethyl-piperidin-1-yl)-4-methyl-2-(2-trifluoromethyl-pyridin-4-yl)-4H-pyrazolo[1,5-a]quinazoin-5-one]
melting point: 205 to 210 °C

Cn1c(=O)c2ccc(N3CC(CO)C3)cc2n2nc(-c3ccnc(C(F)(F)F)c3)cc12 [Example 69, 8-(3-Hydroxymethyl-azetidin-1-yl)-4-methyl-2-(2-trifluoromethyl-pyridin-4-yl)-4H-pyrazolo[1,5-a]quinazolin-5-one]
melting point: > 250 °C

Cn1c(=O)c2ccc(N3CCC(C)(O)CC3)cc2n2nc(-c3ccnc(C(F)(F)F)c3)cc12 [Example 71, 8-(4-Hydroxy-4-methyl-piperidin-1-yl)-4-methyl-2-(2-trifluoromethyl-pyridin-4-yl)-4H-pyrazolo[1,5-a]quinazolin-5-one]
melting point: > 250 °C

Cc1ccc2c(=O)n(C)c3cc(-c4ccnc(C(F)(F)F)c4)nn3c2c1 [Example 72, 4,8-Dimethyl-2-(2-trifluoromethyl-pyridin-4-yl)-4H-pyrazolo[1,5-a]quinazolin-5-one]
melting point: > 250 °C

Cn1c(=O)c2ccc(C3CC3)cc2n2nc(-c3ccnc(C(F)(F)F)c3)cc12 [Example 73, 8-Cyclopropyl-4-methyl-2-(2-trifluoromethyl-pyridin-4-yl)-4H-pyrazolo[1,5-a]quinazolin-5-one]
melting point: > 250 °C

Cn1c(=O)c2ccc(C3CCCC3)cc2n2nc(-c3ccnc(C(F)(F)F)c3)cc12 [Example 74, 8-Cyclopentyl-4-methyl-2-(2-trifluoromethyl-pyridin-4-yl)-4H-pyrazolo[1,5-a]quinazolin-5-one]
melting point: 246 to 250 °C

Cn1c(=O)c2ccc(C#N)cc2n2nc(-c3ccnc(C(F)(F)F)c3)cc12 [Example 75, 4-Methyl-5-oxo-2-(2-trifluoromethyl-pyridin-4-yl)-4,5-dihydro-pyrazolo[1,5-a]quinazoline-8-carbonitrile]
melting point: > 250 °C

Cn1c(=O)c2ccc(C(=O)O)cc2n2nc(-c3ccnc(C(F)(F)F)c3)cc12 [Example 76, 4-Methyl-5-oxo-2-(2-trifluoromethyl-pyridin-4-yl)-4,5-dihydro-pyrazolo[1,5-a]quinazoline-8-carboxylic Acid]
melting point: > 250 °C

Cn1c(=O)c2ccc(OCCO)cc2n2nc(-c3ccnc(C(F)(F)F)c3)cc12 [Example 83, 8-(2-Hydroxy-ethoxy)-4-methyl-2-(2-trifluoromethyl-pyridin-4-yl)-4H-pyrazolo[1,5-a]quinazolin-5-one]
melting point: 128 to 134 °C

COc1cccc2c(=O)n(C)c3cc(-c4ccnc(C(F)(F)F)c4)nn3c12 [Example 86, 9-Methoxy-4-methyl-2-(2-trifluoromethyl-pyridin-4-yl)-4H-pyrazolo[1,5-a]quinazolin-5-one]
melting point: > 250 °C

COc1ccc2c(c1)c(=O)n(C)c1cc(-c3ccnc(F)c3)nn21 [Example 101, 2-(2-Fluoro-pyridin-4-yl)-7-methoxy-4-methyl-4H-pyrazolo[1,5-a]quinazolin-5-one]
melting point: 235 to 245 °C

Cn1cc(-c2cc3n(C)c(=O)c4ccccc4n3n2)cn1 [Example 103, 4-Methyl-2-(1-methyl-1H-pyrazol-4-yl)-4H-pyrazolo[1,5-a]quinazolin-5-one]
melting point: 195 to 199 °C

Cn1c(=O)c2ccccc2n2nc(-c3ccncc3F)cc12 [Example 107, 2-(3-Fluoro-pyridin-4-yl)-4-methyl-4H-pyrazolo[1,5-a]quinazolin-5-one]
melting point: 244 to 247 °C

Cc1cnccc1-c1cc2n(C)c(=O)c3ccccc3n2n1 [Example 109, 4-Methyl-2-(3-methyl-pyridin-4-yl)-4H-pyrazolo[1,5-a]quinazolin-5-one]
melting point: 145 to 150 °C

Cn1c(=O)c2ccc(OCCCO)cc2n2nc(-c3ccnc(C(F)(F)F)c3)cc12 [Example 111, 8-(3-Hydroxy-propoxy)-4-methyl-2-(2-trifluoromethyl-pyridin-4-yl)-4H-pyrazolo[1,5-a]quinazolin-5-one]
melting point: 223 to 226 °C

Cn1c(=O)c2ccc(F)cc2n2nc(-c3ccnc(C4CC4)c3)cc12 [Example 112, 2-(2-Cyclopropyl-pyridin-4-yl)-8-fluoro-4-methyl-4H-pyrazolo[1,5-a]quinazolin-5-one]
melting point: 230 to 235 °C
